Laboratory results as given in BindingDB's records for patent US20250230147 (Genentech, 2025).

Experiments:
[1] = molecular target: E3 ubiquitin-protein ligase CBL (Homo sapiens, UniProt P22681); assay: Cbl-b and c-Cbl SPR Assay
[2] = molecular target: E3 ubiquitin-protein ligase CBL-B (Homo sapiens, UniProt Q13191); assay: Cbl-b and c-Cbl SPR Assay
Chain of E3 ubiquitin-protein ligase CBL-B (Q13191 whole entry): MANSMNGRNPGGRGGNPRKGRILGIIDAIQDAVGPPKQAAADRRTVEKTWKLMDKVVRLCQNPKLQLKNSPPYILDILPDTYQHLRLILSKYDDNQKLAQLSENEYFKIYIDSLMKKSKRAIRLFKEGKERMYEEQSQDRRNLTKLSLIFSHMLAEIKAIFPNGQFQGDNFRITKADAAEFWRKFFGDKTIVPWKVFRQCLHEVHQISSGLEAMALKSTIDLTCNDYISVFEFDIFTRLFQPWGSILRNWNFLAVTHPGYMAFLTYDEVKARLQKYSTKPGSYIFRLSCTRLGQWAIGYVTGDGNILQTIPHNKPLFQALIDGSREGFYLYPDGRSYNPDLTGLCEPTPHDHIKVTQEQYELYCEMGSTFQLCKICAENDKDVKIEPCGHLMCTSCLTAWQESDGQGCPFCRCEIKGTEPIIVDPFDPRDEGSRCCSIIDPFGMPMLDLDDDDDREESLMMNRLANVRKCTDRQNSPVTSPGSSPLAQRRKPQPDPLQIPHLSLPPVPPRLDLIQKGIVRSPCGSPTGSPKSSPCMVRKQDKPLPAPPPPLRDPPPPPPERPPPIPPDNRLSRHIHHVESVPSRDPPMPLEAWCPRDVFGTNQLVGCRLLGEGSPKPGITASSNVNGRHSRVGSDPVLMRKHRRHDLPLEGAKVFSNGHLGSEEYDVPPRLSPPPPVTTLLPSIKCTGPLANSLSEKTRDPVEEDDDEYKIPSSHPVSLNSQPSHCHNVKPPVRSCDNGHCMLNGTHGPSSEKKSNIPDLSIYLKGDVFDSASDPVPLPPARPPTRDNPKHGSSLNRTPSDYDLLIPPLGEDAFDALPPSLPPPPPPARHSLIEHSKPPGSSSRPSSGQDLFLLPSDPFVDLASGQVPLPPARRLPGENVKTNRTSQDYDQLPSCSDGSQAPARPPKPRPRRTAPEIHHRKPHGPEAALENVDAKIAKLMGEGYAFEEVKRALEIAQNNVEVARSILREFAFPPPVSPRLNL

| SMILES | IC50 [1] | IC50 [2] |
| --- | --- | --- |
| Cn1cnnc1[C@H](F)[C@](C)(F)c1cccc(N2Cc3c(cc(CN4CCC5(CC5)C4)cc3C(F)(F)F)C2=O)c1 [US20250230147, Compound 127] | 170 nM | 77 nM |
| Cn1cnnc1[C@H](F)[C@@](C)(F)c1cccc(N2Cc3c(cc(CN4CCC5(CC5)C4)cc3C(F)(F)F)C2=O)c1 [US20250230147, Compound 128] | 1600 nM | 480 nM |
| Cn1cnnc1[C@@H](F)[C@](C)(F)c1cccc(N2Cc3c(cc(CN4CCC5(CC5)C4)cc3C(F)(F)F)C2=O)c1 [US20250230147, Compound 129] | 460 nM | 130 nM |

Now from value to compound:

| IC50 [1] | IC50 [2] | SMILES |
| --- | --- | --- |
| 13000 nM | 4000 nM | Cn1cnnc1[C@@H](F)[C@@](C)(F)c1cccc(N2Cc3c(cc(CN4CCC5(CC5)C4)cc3C(F)(F)F)C2=O)c1 [US20250230147, Compound 130] |
| 8.5 nM | 12 nM | Cn1cnnc1[C@H](F)C1(c2cccc(N3Cc4c(Cl)cc(CNC5(C)CCC5)cc4C3=O)c2)COC1 [US20250230147, Compound 470] |
